Measurements: patent US11178868B2, “Alkynyl-substituted 3-phenylpyrrolidine-2,4-diones and use thereof as herbicides” (Bayer CropScience Aktiengesellschaft, priority 2015, dated 2021)

What was measured:
Type in all cases: in vivo
[1] = test system: Alopecurus myosuroides; assay: Pre-emergence herbicidal effect; settings: scored visually after 3 weeks
Description: (§1) Seeds of monocotyledonous and dicotyledonous weed plants and crop plants are laid out in wood-fibre pots in sandy loam and covered with soil. The compounds according to the invention formulated in the form of wettable powders (WP) or as emulsion concentrates (EC) are then applied as aqueous suspension or emulsion at a water application rate of 600 to 800 I/ha (converted) with the addition of 0.2% wetting agent to the surface of the covering soil. After the treatment, the pots are placed in a greenhouse and kept under good growth conditions for the trial plants. The damage to the test plants is scored visually after a test period of 3 weeks by comparison with untreated controls (herbicidal activity in percent (%): 100% activity=the plants have died, 0% activity=like control plants).

[2] = test system: Setaria viridis; assay: Pre-emergence herbicidal effect; settings: scored visually after 3 weeks
Description: as §1

[3] = test system: Avena fatua; assay: Pre-emergence herbicidal effect; settings: scored visually after 3 weeks
Description: as §1

[4] = test system: Echinochloa crus-galli; assay: Pre-emergence herbicidal effect; settings: scored visually after 3 weeks
Description: as §1

[5] = test system: Lolium multiflorum; assay: Pre-emergence herbicidal effect; settings: scored visually after 3 weeks
Description: as §1

[6] = test system: Echinochloa crus-galli; assay: Post-emergence herbicidal effect; settings: assessed visually after about 3 weeks
Method: (§2) Seeds of monocotyledonous and dicotyledonous weed and crop plants are laid out in sandy loam in wood-fibre pots, covered with soil and cultivated in a greenhouse under good growth conditions. 2 to 3 weeks after sowing, the test plants are treated at the one-leaf stage. The compounds according to the invention, formulated in the form of wettable powders (WP) or as emulsion concentrates (EC), are then sprayed as aqueous suspension or emulsion at a water application rate of 600 to 800 I/ha (converted) with the addition of 0.2% of wetting agent onto the green parts of the plants. After the test plants have been left to stand in the greenhouse under optimal growth conditions for about 3 weeks, the action of the preparations is assessed visually in comparison to untreated controls (herbicidal action in percent (%): 100% activity=the plants have died, 0% activity=like control plants).

[7] = test system: Alopecurus myosuroides; assay: Post-emergence herbicidal effect; settings: assessed visually after about 3 weeks
Method: as §2

[8] = test system: Setaria viridis; assay: Post-emergence herbicidal effect; settings: assessed visually after about 3 weeks
Method: as §2

[9] = test system: Lolium multiflorum; assay: Post-emergence herbicidal effect; settings: assessed visually after about 3 weeks
Method: as §2

[10] = test system: Avena fatua; assay: Post-emergence herbicidal effect; settings: assessed visually after about 3 weeks
Method: as §2

SMILES | Herbicidal effect against [%] ALOMY ([1]; 80 g a.i./ha) [%] | Herbicidal effect against [%] ALOMY ([1]; 320 g a.i./ha) [%] | Herbicidal effect against [%] SETVI ([2]; 80 g a.i./ha) [%] | Herbicidal effect against [%] SETVI ([2]; 320 g a.i./ha) [%] | Herbicidal effect against [%] AVEFA ([3]; 80 g a.i./ha) [%] | Herbicidal effect against [%] AVEFA ([3]; 320 g a.i./ha) [%] | Herbicidal effect against [%] ECHCG ([4]; 80 g a.i./ha) [%] | Herbicidal effect against [%] ECHCG ([4]; 320 g a.i./ha) [%] | Herbicidal effect against [%] LOLMU ([5]; 80 g a.i./ha) [%] | Herbicidal effect against [%] LOLMU ([5]; 320 g a.i./ha) [%] | Herbicidal effect against [%] ECHCG ([6]; 80 g a.i./ha) [%] | Herbicidal effect against [%] ALOMY ([7]; 20 g a.i./ha) [%] | Herbicidal effect against [%] ALOMY ([7]; 80 g a.i./ha) [%] | Herbicidal effect against [%] SETVI ([8]; 20 g a.i./ha) [%] | Herbicidal effect against [%] SETVI ([8]; 80 g a.i./ha) [%] | Herbicidal effect against [%] ECHCG ([6]; 20 g a.i./ha) [%] | Herbicidal effect against [%] LOLMU ([9]; 80 g a.i./ha) [%] | Herbicidal effect against [%] AVEFA ([10]; 20 g a.i./ha) [%] | Herbicidal effect against [%] AVEFA ([10]; 80 g a.i./ha) [%] | Herbicidal effect against [%] LOLMU ([9]; 20 g a.i./ha) [%]
CC#Cc1cc(CC)c(C2=C(OC(=O)OCC)C3(CCCC(OCC)C3)NC2=O)c(CC)c1 (single isomer, unassigned) [Example P2] | 100 | 100 | 100 | 100 | 100 | 100 | 100 | 100 | 100 | 100 | 80 | – | – | – | – | – | – | – | – | –
CC#Cc1cc(CC)c(C2=C(O)C3(CCCC(OCC)C3)NC2=O)c(CC)c1 (stereo not shown) [Example D1] | 100 | 100 | 100 | 100 | 80 | 100 | 100 | 100 | 100 | 100 | 100 | 80 | 100 | 90 | 100 | 100 | 90 | – | – | –
CC#Cc1cc(C)c(C2=C(O)C3(CCCC(OCC)C3)NC2=O)c(C)c1 (stereo not shown) [Example D2] | 100 | 100 | 100 | 100 | 80 | 100 | 100 | 100 | 100 | 100 | 100 | – | 90 | – | 90 | 90 | 100 | – | – | –
CC#Cc1cc(CC)c(C2=C(O)C3(CCCC(OCCOC)C3)NC2=O)c(CC)c1 (stereo not shown) [Example D5] | 100 | 100 | 100 | 100 | 100 | 100 | 100 | 100 | 100 | 100 | 100 | 100 | 100 | 100 | 100 | 100 | 100 | 100 | 100 | 100
CC#Cc1ccc(C2=C(O)C3(CCCC(OCCOC)C3)NC2=O)c(CC)c1 (stereo not shown) [Example D7] | 100 | 100 | 100 | 100 | – | 100 | 100 | 100 | 100 | 100 | 100 | 100 | 100 | 100 | 100 | 100 | 100 | 100 | 100 | 100
